From US20110045102A1, “Cancer chemotherapy compositions comprising PI3K pathway modulators and triptolide” (priority 2005, published 2011)

Assays:
[1] = system: OCC1-SEAP-12 cells; test: Growth assay, [3H] thymidine incorporation (Example III); assay type: cell-based, human; conditions: 18h treatment
Protocol: Cell proliferation was analyzed by determining the amount of [^3H] thymidine incorporation Into newly synthesized DNA. The OCC1-SEAP-12 cells were plated in 24 well plates in Ham's F-12 medium plus 10% BCS and allowed to reach 50 to 70% confluence. Following a 48 hr serum starvation, the culture medium was changed to Dulbecco's Modified Eagle Medium (DMEM) plus 0.1% BSA and 0.1% BCS containing either vehicle control or carboplatin (0-100 μg/ml) alone, or in combination with LY294002 (0-20 μM). Treatments were removed after 18h and cells were incubated for 4 hr in medium containing 5 μCi/ml of [^3H] thymidine. Medium was removed and cells were disrupted by sonication in phosphate buffered saline (PBS). An aliquot of the sonicated solution of PBS was loaded onto a DEAE filtration plate (Millipore, Bedford, Mass.), and individual filters with bound DNA were collected for scintillation counting. Data was normalized to total DNA per well and was determined by a SYBR green fluorescent assay (Nilsson E E, Westfall S D, McDonald C, Ligon T, Sadler-Riggleman I, Skinner M K. An in vivo mouse reporter gene (human secreted alkaline phosphatase) model to monitor ovarian tumor growth and response to therapeutics. Cancer Chemother Pharmacol 2002; 49(2):93-100).

[2] = system: Akt; test: Western blot for Akt phosphorylation (Example III); assay type: cell-based, human; conditions: 6 hr and 24 hr; LY294002 10 (FIG. 18 legend: mM), carboplatin 50
Protocol: The OCC1-SEAP-12 cells were grown to 80% confluence. […] […] Total cell lysates were subjected to SDS polyacrylamide gel electrophoresis 9 page) and transferred to PVDF membranes (Millipore, Bedford, Mass.). Membranes were immunoblotted with antibodies to both the phosphorylated and non-phosphorylated forms of […] (Cell Signaling Technology, Beverly, Mass.), or alternatively, with antibodies to cleaved and full length caspase-3 (Cell Signaling Technology, Beverly, Mass.).

[3] = system: OCC1-SEAP ovarian cancer cells; test: Cell survival by DNA content of culture wells (Example II); assay type: cell-based, human; conditions: 48 hours; triptolide 100 ng/ml, carboplatin 50 (FIG. 8 legend: mg/ml)
Protocol: Cell survival was assessed as the number of cells remaining in culture, following exposure to treatments. The DNA content of individual culture wells was used as an indication of cell number. Cells plated in 24 well culture plates were allowed to approach confluence (80%) in Ham's F-12 medium plus 10% BCS. Cultures were then incubated in DMEM, plus 0.1% BSA and 0.1% BCS, in the presence of vehicle control, carboplatin (0-100 μg/ml), Triptolide (100 ng/ml) or a combination of these for 24 to 96 hrs. Media aliquots were taken when appropriate for SEAP analysis. The DNA was measured fluorometrically, as described above, in Example I. Briefly, the fluorescence of an aliquot of sonicated cell suspension, into which SYBR Green I fluorescent dye (Molecular Probes, Eugene, Oreg.), had been incorporated was measured.

[4] = system: OCC1-SEAP cells; test: OCC1-SEAP cell response to carboplatin in vitro (DNA per well, SEAP in medium); assay type: cell-based, human
Protocol: OCC1-SEAP-12 cells were grown in Ham's F-12 medium (Gibco) plus 10% calf serum then collected into Hank's balanced salt solution and counted for injection into nude mice. For in vitro assays OCC1-SEAP-12 cells were plated at sequential twofold dilutions and allowed to adhere to culture wells and incubated for 24 hours. Alternatively, OCC1-SEAP-12 cells were grown to 80% confluence in Ham's F-12 medium plus 10% calf serum. Cells were starved for 48 hours in DMEM plus 0.1% BSA and 0.1% calf serum. Experimental treatments were applied for 2 days in DMEM plus 0.1% BSA and 0.1% calf serum. At the end of the treatment period a sample of culture medium was taken for SEAP level determination. DNA assays were performed by discarding the remaining culture medium from over the cells, adding buffer solution, sonicating the cells in each well, and measuring the fluorescence of cell solution into which SYBR Green I fluorescent dye (Molecular Probes, Eugene, Oreg.) had been incorporated as previously described (Parrott and Skinner 1999).
Blood plasma and cell culture medium samples were assayed for SEAP activity using the Great EscAPe SEAP fluorescence detection kit (Clontech Laboratories, Palo Alto, Calif.). SEAP is secreted at a constant rate by transfected tumor cells and distributed throughout the body or into the culture medium. SEAP is heat stable, so any endogenous alkaline phosphatase activity in blood plasma is destroyed by heat treatment of the samples (65° C. for 30 minutes) during the assay. The SEAP enzyme in each sample acts on the substrate 4-methylumbelliferyl phosphate during a 1 hour incubation at room temperature to produce a fluorescent product with excitation and emission peaks at 360 and 449 nm, respectively. A fluorimeter is then used to measure SEAP activity. The intra-assay and inter-assay coefficients of variation were 2.5% and 18.8%, respectively. Blood plasma samples were diluted 1:100 prior to the assay to bring values within the linear range of the standard curve.

[5] = system: OCC1-SEAP-12 ovarian cancer cells; assay type: in vivo
Protocol: Athymic nude mice were obtained and inoculated intraperitoneally with OCC1-SEAP-12 cells as described above in Examples I and II. Animals received injections of either vehicle control (PBS containing 25% DMSO), or carboplatin (60 mg/kg) alone, or in combination with LY294002 (50 mg/kg) every other day for 6 days. Blood samples were collected into capillary tubes from saphenous vein lancings at regular intervals during and following treatments. Capillary tubes were centrifuged, and the plasma samples were frozen (−20° C.), until the time of SEAP assay. The Washington State University Animal Care and Use Committee approved all procedures.
Blood plasma and cell culture medium samples were assayed for SEAP activity using the Great EscAPe SEAP fluorescence detection kit (Clontech Laboratories, Palo Alto, Calif.) as described above in Examples I and II. Blood plasma samples were diluted 1:100 prior to the assay to bring values within the linear range of the standard curve. The intraassay and interassay coefficients of variation were 2.5% and 18.8%, respectively.

What does the source list for `N.N.O=C([O-])C1(C(=O)[O-])CCC1.[Pt+2]` [carboplatin]?
block of basal DNA synthesis ([1]; 20 μg/ml carboplatin): 51%; block of basal DNA synthesis ([1]; 50 μg/ml carboplatin): 59.5%; Akt phosphorylation [2]: had not effect; decrease in cell survival (μg DNA/ml) compared to control cultures [3]: 30%; normalized SEAP production (SEAP per amount of DNA per well) ([4]; 60 micro g/ml carboplatin for 48 hours vs control): did not change; SEAP levels in culture medium ([4]; 60 micro g/ml carboplatin for 48 hours, control cells 11.1): 3.9 ng per 25 micro liter; DNA levels ([4]; 60 micro g/ml carboplatin for 48 hours, control cells 58 micro g/ml): 35 micro g/ml; drug induced toxicity ([5]; carboplatin 60 mg/kg, alone or with LY294002 50 mg/kg): muscle wasting and became anemic; abdominal swelling (FIG. 24) ([5]; physical appearance of mice after treatment): displayed abdominal swelling; tumor size vs vehicle control (FIG. 23) ([5]; single agents: LY294002 50 mg/kg, carboplatin 60 mg/kg): no significant difference
